The numbers were not newly measured in patent publication US6525025B2, “Gamma-ketoacid dipeptides as inhibitors of caspase-3” (Merck Frosst Canada & Co., priority 2000, dated 2003), which cites them from elsewhere.

A value given as a limit tells only on which side of the number the result lay.

Data set [1] has as its target T1, caspase-1 (Homo sapiens, UniProt P29466).
T1 sequence (P29466 120-297 limits assumed): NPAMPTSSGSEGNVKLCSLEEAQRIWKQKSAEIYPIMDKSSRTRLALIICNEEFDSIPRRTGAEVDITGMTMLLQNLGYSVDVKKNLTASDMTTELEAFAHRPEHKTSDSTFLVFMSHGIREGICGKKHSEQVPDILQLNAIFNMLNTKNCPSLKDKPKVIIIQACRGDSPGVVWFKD
T1 sequence (P29466 317-404 limits assumed): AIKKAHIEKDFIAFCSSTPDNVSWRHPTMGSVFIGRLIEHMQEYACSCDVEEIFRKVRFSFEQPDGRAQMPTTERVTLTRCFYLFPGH

The target in data set [2] is T2, caspase-3 (Homo sapiens, UniProt P42574).
T2 sequence (P42574 29-175 limits assumed): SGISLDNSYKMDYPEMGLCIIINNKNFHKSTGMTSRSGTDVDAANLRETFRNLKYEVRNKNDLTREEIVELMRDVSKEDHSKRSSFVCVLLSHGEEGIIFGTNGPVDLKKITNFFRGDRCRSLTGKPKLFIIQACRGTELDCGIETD
T2 sequence (P42574 176-277 limits assumed): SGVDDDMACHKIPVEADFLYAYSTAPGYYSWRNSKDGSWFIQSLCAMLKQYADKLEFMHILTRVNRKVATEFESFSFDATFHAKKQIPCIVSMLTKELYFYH

One may read the Ki as a measure of affinity in units of concentration, obtained from inhibition or displacement. As to Ac-YVAD-CHO, the Ki in data set [1] is below 1 nM; in data set [2], 12 µM.
